Test results: a melting point compilation (Tetko et al.; mined from patent text by program, amines drawn as free bases though some values may be those of a salt)

| melting point | Structure (SMILES) |
| --- | --- |
| 50 to 54 °C | COC(=O)CCCCCNC(=O)C(CSC(C)=O)Cc1ccccc1 (centres undefined) |
| > 300 °C | COc1ccc(-c2nc3ncn(C)c(=S)n3n2)cc1 |
| 178 °C | O=C(/C=C/c1cccc(S(=O)(=O)N2CCN(C/C=C/c3ccccc3)CC2)c1)NO |
| 179 to 181 °C | Cc1cnn(-c2ccc(C(=O)N3C=C4CC=CN4Cc4ccccc43)cc2)c1 |
| 92 to 95 °C | COCc1cccc(CC=NO)c1[N+](=O)[O-] |
| 193 to 194 °C | CC(C)(C)c1ccc(CCCC(=O)CC2CCCCC2)cc1NC(=O)CC1c2ccccc2Oc2ccccc21 |
| 139 to 140 °C | Nc1nc(OC2CCC2)c2ncn(C3CC(F)C(CO)O3)c2n1 (centres undefined) |
| 219 to 222 °C | O=c1[nH]c(C(F)(F)F)c(Br)c(=O)n1-c1c(Cl)cc(Cl)cc1Cl |
| 105 to 106 °C | CCOC(=O)COc1ccc(CC2SC(=O)NC2=O)cc1 (centres undefined) |
| 96 to 99 °C | CCN1CCN(C(=O)c2ccc([N+](=O)[O-])cc2C)CC1 |
| 213 to 214 °C | CCCCn1ncc(/C=C(\Cc2cc3c(cc2OC)OCO3)C(=O)O)c1-c1ccc(OC)cc1OCc1ccccc1C(=O)O |
| 245 to 247 °C | COc1ccc(-c2c(-c3ccc(S(C)(=O)=O)cc3)n(C)n(C)c2=O)cc1 |
| 194 to 196 °C | Cc1ccc(C(=O)NCc2ccc3c(c2)C(=O)N(C2CCC(=O)NC2=O)C3=O)cc1 (centres undefined) |
| 187 °C | Cc1sc2c(c1C)C(=O)NS2(=O)=O |
| 242 to 243 °C | Cc1cc2c(-c3ccccc3Cl)c(N)c(=O)n(C)c2cc1C |
| 214 to 220 °C | COc1cc2cc(CO)c(CO)c(-c3ccnc(NN)c3)c2cc1OC |
| 146 to 148 °C | CC(C(=O)OC(C)(C)C)C(C)(O)c1ccc(Cl)nc1NC(=O)C(C)(C)C (centres undefined) |
| 69 °C | Cc1ccc(Br)c(S(=O)(=O)C(F)(F)F)c1 |
| 79 to 81 °C | CCC(=S)N1CCSC1=Nc1ccccc1C(C)C |
| 130 to 131 °C | CC(=NO)C(C)(C)NCCN(C)NC(C)(C)C(C)=NO |
| 115 to 118 °C | CCC(CC)c1ccc(Cl)c2nc(Nc3ccc(C)cc3Br)n(CCCCO)c12 |
| 282 to 284 °C | COc1ccc(-c2nc(N)sc2-c2ccncc2)cc1 |

| melting point | Structure (SMILES) |
| --- | --- |
| 223 to 226 °C | Cc1c(-c2ccc(O)cc2)sc(C=O)c1-c1ccc(O)c(F)c1 |
| 156 to 158 °C | CC(C)[C@H](NC(=O)[C@H](C)NC(=O)OCc1ccccc1)[C@@H](O)c1c(-c2ccccc2)c1=O |
| > 320 °C | CCOC(=O)c1oc2cc(O)ccc2c(=O)c1C(N)=O |
| 215 to 217 °C | O=c1cc2c(nn1-c1ccc(Cl)cc1)-c1cc(Cl)ccc1SCC2 |
| 159 to 161 °C | COc1ccc(Cn2nccc2-c2nn(-c3cccc(C(F)(F)F)c3)ccc2=O)cc1 |
| 167 to 168 °C | COc1cc(Nc2ncc(C#N)c(-c3ccc(C(C)(C)N)cc3)n2)cc(OC)c1OC |
| 86 to 88 °C | COc1ccc2c(c1)-c1noc(N3CCNCC3)c1CC2 |
| 204 °C | Cn1cncc1C(C)(c1ccc(Cl)cc1)c1ccc2c(c1)c(-c1cccc(Cl)c1)cc(=O)n2C (centres undefined) |
| 130 to 132 °C | CC(=O)c1ccc(N2CCCCC2)c(S(N)(=O)=O)c1 |
| 136 to 138 °C | CS(=O)(=O)c1ccc(Oc2ccc(Oc3ccccc3)cc2)nc1 |
| 128 to 130 °C | O=CNC1=NN(c2cccc(F)c2)C(c2ccc(Cl)cc2)C1 (centres undefined) |
| 149 to 151 °C | O=C(O)c1cc(-c2ncc(C(F)(F)F)cc2Cl)ccc1Cl |
| 290 to 292 °C | CN1C(=O)c2cccnc2NS1(=O)=O |
| 157 to 158 °C | Cc1ccc(C2c3c(C)c(N4CCN(c5ccc(C)cc5)CC4)c(C)c(C)c3OC2(C)C)cc1 (centres undefined) |
| 138 to 141 °C | Cc1ccccc1-c1ccc(C(=O)N2Cc3ccc(C(=O)NCc4ccccc4)n3Cc3ccccc32)cc1C |
| 166 °C | CC(C)(C)c1cc(Cn2nc(-c3ccccc3)oc2=S)cc(C(C)(C)C)c1O |
| 192 to 195 °C | COc1ccc(S(=O)(=O)C2(C(=O)NO)CCN(Cc3ccc(Cl)c(Cl)c3)CC2)cc1 |
| 210 to 212 °C | CC(C)c1cccc2c1C(=O)N(COC(=O)c1c(Cl)ccc(OCC(=O)O)c1Cl)S2(=O)=O |
| 189 to 194 °C | CC1Cc2cc(C(=O)O)ccc2C1=O (centres undefined) |
| 204 to 206 °C | Cn1c(=O)c(NC(=O)Nc2ccc(F)cc2F)c(-c2ccccc2)c2cc(Cl)ccc21 |
| 114 °C | O=S(=O)(c1ccc(F)cc1)N1CCCC1c1ccc(C(F)(F)F)cc1 (racemic) |
| 204 to 205 °C | Nc1ccc(S(=O)(=O)c2cc(N)nc(Br)c2)cc1 |

| melting point | Structure (SMILES) |
| --- | --- |
| 109 to 110 °C | CSc1ccc(C(CC2CCCC2)C(=O)Nc2ccc([N+](=O)[O-])cn2)cc1C(F)(F)F (centres undefined) |
| 156 °C | COC(=O)CCC(=O)NS(=O)(=O)c1ccc([N+](=O)[O-])cc1 |
| 117 to 118 °C | COc1ccc2c3ccnc(C)c3n(CCCc3ccccc3)c2c1 |
| 159 to 160 °C | C=CCC1c2ccccc2Cn2cc3c(c21)C(=O)c1ccccc1C3=O (centres undefined) |
| 150 °C | Cc1ccc(S(=O)(=O)N2[C@@H](c3nn[nH]n3)CC[C@H]2c2ccc(F)cc2)cc1 (racemic) |
| 73 to 74 °C | CCCCCCCCC=CCCCCCCCC(=O)Cl |
| 183 to 184 °C | Cc1nc(C)c(Cl)c(CNCc2ccc(Oc3ccc4ncc([N+](=O)[O-])n4n3)cn2)n1 |
| 101 to 104 °C | CC(C)(C)OC(=O)N1CCN(c2ccc(N3CC(CN=[N+]=[N-])OC3=O)cc2F)CC1 (centres undefined) |
| 202 to 205 °C | Cc1ccc2c(c1)c(=O)c(S(C)=O)cn2C (centres undefined) |
| 177 to 179 °C | Cc1ccc(-c2nn(-c3cccc(OC(F)(F)F)c3)c(N)c2C(N)=O)cc1 |
| 114 to 115 °C | CSCC(C)(C)NC(=O)c1c(I)cccc1[N+](=O)[O-] |
| 185 to 187 °C | Cc1ccc(S(=O)(=O)NC(=S)Nc2cnccc2N)cc1 |
| 215 to 216 °C | Cc1nc2c(N)nc3ccccc3c2n1CCCCNS(=O)(=O)c1ccccc1 |
| 216 to 218 °C | NS(=O)(=O)c1cc2cnccc2o1 |
| 183 to 185 °C | CCCCc1nc(Cl)c(C(=O)O)n1Cc1ccc2oc(-c3ccccc3-c3nnn[nH]3)c(Br)c2c1 |
| 102 to 103 °C | CCCCN(C(=O)CCc1ccc(OCCOC)cc1Oc1ncc(C(F)(F)F)cc1Cl)S(N)(=O)=O |
| 178 to 180 °C | Cc1ccccc1-n1c(C)nc2c(c1=O)N(Cc1ccccc1)NN2 |
| 113 to 116 °C | CC(C)(C)OC(=O)N[C@@H](C(=O)N1CCC[C@H]1C(=O)NCC1CCc2n[nH]cc2C1)C(c1ccccc1)c1ccccc1 (some centres undefined) |
| 174 to 175 °C | O=C1CCCN1[C@@H]1c2cc(C(F)(F)C(F)(F)C(F)(F)F)ccc2OC(CF)(CF)[C@H]1O (relative stereo) |
| 77 to 79 °C | c1ccc(-c2csc3ncnc(NCc4ccco4)c23)cc1 |
| 70 to 74 °C | CCCCCCCCCCOc1ccc(C(=O)O[C@@H]2CC[C@H](NC(=O)[C@H](OC)[C@H](O)[C@@H](O)[C@H](O)/C=C/C(C)(C)C)C(=O)NC2)cc1 |
| 181 to 182 °C | CCCCc1oc2ccccc2c1/C=N/OCCCOc1ccc(C(=O)O)c(NC(=O)c2ccc(C(C)(C)C)cc2)c1 |

| Structure (SMILES) | melting point |
| --- | --- |
| NC(=O)C12CCCN(CCC1)C2 | 172 to 175 °C |
| Cc1nc(-c2ccc(C=CC3CN4CCC3CC4)cc2)no1 (centres undefined) | 93 to 97 °C |
| COc1nc(OC)nc(N(C)C(=O)Oc2ccccc2)n1 | 90 °C |
